Reference: patent publication US9156801B2, “2-substituted oleanolic acid derivative, method preparing for same, and application thereof” (HANGZHOU BENSHENG PHARMACEUTICAL CO., LTD., priority 2011, dated 2015)
In brackets after ≈: the same amount, converted by molar mass.

Key:
RPMI8226 cell line = assay: multiple myeloma cell growth inhibition, MTT; type: cell-based; settings: Homo sapiens, RPMI-8226; for inhibition at 16 µg/mL: RPMI8226, 16 μg/mL compound, 72 h, read-out: IR (cell proliferation inhibition rate); for IC50: RPMI8226, 72 h
Description: Multiple myeloma cell lines: RPMI8226 (multiple myeloma), purchased from Fuxiang Bio-tech Co. Ltd., Shanghai, China.
(§1) Obtaining 6000 well-growing cells as above and inoculating them into wells of a 96-well cell culture plate. The culture medium is the 1640 cell culture medium containing 10% fetal bovine serum. After adding the 2-substituted oleanolic acid derivatives of different concentrations and mixing uniformly, placing the plate in a carbon dioxide cell incubator (5% CO2) at 37° C. and incubated for 72 hours. Then the relative number of viable cells is determined by MTT method. In this experiment, cell proliferation inhibition rate in control group (not treated with any compound) is set as 0%.

PANC-1 cell line = assay: solid tumor cell growth inhibition, MTT; type: cell-based; settings: Homo sapiens; for IC50: PANC-1, 72 h; for inhibition at 16 µg/mL: PANC-1, 16 μg/mL compound, 72 h, read-out: IR (cell proliferation inhibition rate)
Description: (§2) Hep-2 (laryngeal carcinoma), A549 (human lung cancer), CaES-17 (esophageal cancer cell), PC-3 (prostate cancer), CNE (nasopharyngeal carcinoma cell), and SK-OV-3 (ovarian cancer cell), all of which are purchased from China Center For Type Culture Collection; RKO (human colon adenocarcinoma cell), MGC 803 (human gastric cancer cell), MG63 (osteosarcoma) and U87 MG (malignant glioma cell), all of which are purchased from Fuxiang Bio-tech Co. Ltd., Shanghai, China; PANC-1 (pancreatic cancer), Hep G2 (human liver cancer cell), Becap37 (human breast cancer cell), and Hela (human cervical cancer cell), all of which are donated by Cancer Research Institute of Zhejiang University, China.
(§3) Obtaining 4000 well-growing human solid tumor cells and inoculating them into wells of a 96-well cell culture plate. The culture medium is DMEM High Glucose cell culture medium containing 10% fetal bovine serum. The plate is placed in a carbon dioxide cell incubator (5% CO2) at 37° C. for 24 hours. After adding the 2-substituted oleanolic acid derivatives of different concentrations and mixing uniformly, the plate is placed in a carbon dioxide cell incubator (5% CO2) at 37° C. and incubated for 72 hours. Then the relative number of the living cells is determined by MTT method. In this experiment, the cell proliferation inhibition rate in control group (not treated with any compound) is set as 0%.

Becap37 cell line = assay: solid tumor cell growth inhibition, MTT; type: cell-based; settings: Homo sapiens; for inhibition at 16 µg/mL: Becap37, 16 μg/mL compound, 72 h, read-out: IR (cell proliferation inhibition rate); for IC50: Becap37, 72 h
Description: as §2, §3

CaES-17 cell line = assay: solid tumor cell growth inhibition, MTT; type: cell-based; settings: Homo sapiens, CaEs17; for inhibition at 16 µg/mL: CaES-17, 16 μg/mL compound, 72 h, read-out: IR (cell proliferation inhibition rate); for IC50: CaES-17, 72 h
Description: as §2, §3

CNE cell line = assay: solid tumor cell growth inhibition, MTT; type: cell-based; settings: Homo sapiens, 72 h; for inhibition at 16 µg/mL: 16 μg/mL compound, read-out: IR (cell proliferation inhibition rate)
Description: as §2, §3

Hep-2 cell line = assay: solid tumor cell growth inhibition, MTT; type: cell-based; settings: Homo sapiens; for IC50: HEp-2, 72 h; for inhibition at 16 µg/mL: Hep-2, 16 μg/mL compound, 72 h, read-out: IR (cell proliferation inhibition rate)
Description: as §2, §3

U87 MG cell line = assay: solid tumor cell growth inhibition, MTT; type: cell-based; settings: Homo sapiens, U-87 MG, 72 h; for inhibition at 16 µg/mL: 16 μg/mL compound, read-out: IR (cell proliferation inhibition rate)
Description: as §2, §3

MGC 803 cell line = assay: solid tumor cell growth inhibition, MTT; type: cell-based; settings: Homo sapiens; for inhibition at 16 µg/mL: MGC 803, 16 μg/mL compound, 72 h, read-out: IR (cell proliferation inhibition rate); for IC50: MGC 803, 72 h
Description: as §2, §3

SK-OV-3 cell line = assay: solid tumor cell growth inhibition, MTT; type: cell-based; settings: Homo sapiens; for IC50: SK-OV-3, 72 h; for inhibition at 16 µg/mL: SK-OV-3, 16 μg/mL compound, 72 h, read-out: IR (cell proliferation inhibition rate)
Description: as §2, §3

MG-63 cell line = assay: solid tumor cell growth inhibition, MTT; type: cell-based; settings: Homo sapiens; for IC50: MG-63, 72 h; for inhibition at 16 µg/mL: MG-63, 16 μg/mL compound, 72 h, read-out: IR (cell proliferation inhibition rate)
Description: as §2, §3

PC-3 cell line = assay: solid tumor cell growth inhibition, MTT; type: cell-based; settings: Homo sapiens; for IC50: PC-3, 72 h; for inhibition at 16 µg/mL: PC-3, 16 μg/mL compound, 72 h, read-out: IR (cell proliferation inhibition rate)
Description: as §2, §3

Hela cell line = assay: solid tumor cell growth inhibition, MTT; type: cell-based; settings: Homo sapiens, 72 h; for IC50: HeLa; for inhibition at 16 µg/mL: Hela, 16 μg/mL compound, read-out: IR (cell proliferation inhibition rate)
Description: as §2, §3

A549 cell line = assay: solid tumor cell growth inhibition, MTT; type: cell-based; settings: Homo sapiens; for IC50: A549, 72 h; for inhibition at 16 µg/mL: A549, 16 μg/mL compound, 72 h, read-out: IR (cell proliferation inhibition rate)
Description: as §2, §3

RKO cell line = assay: solid tumor cell growth inhibition, MTT; type: cell-based; settings: Homo sapiens, 72 h; for inhibition at 16 µg/mL: 16 μg/mL compound, read-out: IR (cell proliferation inhibition rate)
Description: as §2, §3

Hep G2 cell line = assay: solid tumor cell growth inhibition, MTT; type: cell-based, human; settings: Homo sapiens; for inhibition at 16 µg/mL: HepG2, 72 h, Hep G2, 16 μg/mL compound, 72 h, read-out: IR (cell proliferation inhibition rate); for IC50: HepG2, Hep G2, 72 h
Description: as §2, §3

H9 cell line = assay: leukemia cell growth inhibition, MTT; type: cell-based; settings: Homo sapiens; for IC50: H9, 72 h; for inhibition at 16 µg/mL: H9, 16 μg/mL compound, 72 h, read-out: IR (cell proliferation inhibition rate)
Excerpt: (§4) Leukemia cell lines: leukemia cell lines: K562/adr (drug-resistant, chronic myeloid leukemia, CML), NB4 (acute promyelocytic leukemia, AML), Kasumi-1 (acute myeloid leukemia M2 type, AML-M2), Jurkat (acute lymphoblastic leukemia, ALL), all of which are donated by Cancer Research Institute of Zhejiang University, China; and H9 (acute lymphoblastic leukemia, ALL), which is purchased from China Center for Type Culture Collection (CCTCC).
as §1, with “well-growing leukemia” for “well-growing”, “cells” for “cells as above”

K562/adr cell line = assay: leukemia cell growth inhibition, MTT; type: cell-based; settings: Homo sapiens, 72 h; for IC50: K562/Adr; for inhibition at 16 µg/mL: K562/adr, 16 μg/mL compound, read-out: IR (cell proliferation inhibition rate)
Excerpt: as §4
as §1, with “well-growing leukemia” for “well-growing”, “cells” for “cells as above”

NB4 cell line = assay: leukemia cell growth inhibition, MTT; type: cell-based; settings: Homo sapiens, NB-4; for inhibition at 16 µg/mL: NB4, 16 μg/mL compound, 72 h, read-out: IR (cell proliferation inhibition rate); for IC50: NB4, 72 h
Excerpt: as §4
as §1, with “well-growing leukemia” for “well-growing”, “cells” for “cells as above”

Jurkat cell line = assay: leukemia cell growth inhibition, MTT; type: cell-based; settings: Homo sapiens, 72 h; for inhibition at 16 µg/mL: 16 μg/mL compound, read-out: IR (cell proliferation inhibition rate)
Excerpt: as §4
as §1, with “well-growing leukemia” for “well-growing”, “cells” for “cells as above”

Kasumi-1 cell line = assay: leukemia cell growth inhibition, MTT; type: cell-based; settings: Homo sapiens; for inhibition at 16 µg/mL: Kasumi-1, 16 μg/mL compound, 72 h, read-out: IR (cell proliferation inhibition rate); for IC50: Kasumi-1, 72 h
Excerpt: as §4
as §1, with “well-growing leukemia” for “well-growing”, “cells” for “cells as above”

| Structure (SMILES) | inhibition at 16 µg/mL (RPMI8226 cell line) [%] | IC50 (RPMI8226 cell line) [µg/mL] | IC50 (PANC-1 cell line) [µg/mL] | inhibition at 16 µg/mL (PANC-1 cell line) [%] | inhibition at 16 µg/mL (Becap37 cell line) [%] | IC50 (Becap37 cell line) [µg/mL] | inhibition at 16 µg/mL (CaES-17 cell line) [%] | IC50 (CaES-17 cell line) [µg/mL] | inhibition at 16 µg/mL (CNE cell line) [%] | IC50 (CNE cell line) [µg/mL] | IC50 (Hep-2 cell line) [µg/mL] | inhibition at 16 µg/mL (Hep-2 cell line) [%] | inhibition at 16 µg/mL (U87 MG cell line) [%] | IC50 (U87 MG cell line) [µg/mL] | inhibition at 16 µg/mL (MGC 803 cell line) [%] | IC50 (MGC 803 cell line) [µg/mL] | IC50 (SK-OV-3 cell line) [µg/mL] | inhibition at 16 µg/mL (SK-OV-3 cell line) [%] | IC50 (MG-63 cell line) [µg/mL] | inhibition at 16 µg/mL (MG-63 cell line) [%] | other results |
| --- | --- | --- | --- | --- | --- | --- | --- | --- | --- | --- | --- | --- | --- | --- | --- | --- | --- | --- | --- | --- | --- |
| COCCCNC(=O)C1C[C@]2(C)[C@H]3CC=C4[C@@H]5CC(C)(C)CC[C@]5(C(=O)OC)CC[C@@]4(C)[C@]3(C)CC[C@H]2C(C)(C)C1=O (some centres unmarked) [BS-OA-052] | 25.2 | > 16 | > 16 | 8.4 | -12 | > 16 | -8 | > 16 | 9.9 | > 16 | > 16 | -11.3 | 10.9 | > 16 | -12.7 | > 16 | > 16 | 29.5 | > 16 | -33.5 | IC50 (PC-3 cell line): > 16 µg/mL; inhibition at 16 µg/mL (PC-3 cell line): 25.4%; IC50 (Hela cell line): > 16 µg/mL; inhibition at 16 µg/mL (Hela cell line): 25.6%; IC50 (A549 cell line): > 16 µg/mL; inhibition at 16 µg/mL (A549 cell line): 3.1%; inhibition at 16 µg/mL (RKO cell line): -48.6%; IC50 (RKO cell line): > 16 µg/mL; inhibition at 16 µg/mL (Hep G2 cell line): 10%; IC50 (Hep G2 cell line): > 16 µg/mL; IC50 (H9 cell line): > 16 µg/mL; inhibition at 16 µg/mL (H9 cell line): 38%; IC50 (K562/adr cell line): 12.3 µg/mL (≈ 21 µM); inhibition at 16 µg/mL (K562/adr cell line): 64%; inhibition at 16 µg/mL (NB4 cell line): 46.7%; IC50 (NB4 cell line): 16 µg/mL (≈ 27.4 µM); inhibition at 16 µg/mL (Jurkat cell line): -5%; IC50 (Jurkat cell line): > 16 µg/mL; inhibition at 16 µg/mL (Kasumi-1 cell line): 19%; IC50 (Kasumi-1 cell line): > 16 µg/mL |
| COC(=O)[C@]12CCC(C)(C)CC1C1=CCC3[C@@]4(C)CC(C(=O)NCCc5cccnc5)C(=O)C(C)(C)C4CC[C@@]3(C)[C@]1(C)CC2 (some centres unmarked) [BS-OA-027] | 86.5 | 6.1 (≈ 9.89 µM) | > 16 | 36.9 | 34.3 | > 16 | 49.5 | 17 (≈ 27.5 µM) | 51.3 | 15.6 (≈ 25.3 µM) | > 16 | 35.5 | 48.7 | 16 (≈ 25.9 µM) | 80.1 | 9.96 (≈ 16.1 µM) | 6.63 (≈ 10.7 µM) | 91.6 | > 16 | 25.4 | IC50 (PC-3 cell line): 7.79 µg/mL (≈ 12.6 µM); inhibition at 16 µg/mL (PC-3 cell line): 68.9%; IC50 (Hela cell line): 10.8 µg/mL (≈ 17.4 µM); inhibition at 16 µg/mL (Hela cell line): 62%; IC50 (A549 cell line): > 16 µg/mL; inhibition at 16 µg/mL (A549 cell line): 45.6%; inhibition at 16 µg/mL (RKO cell line): 46.8%; IC50 (RKO cell line): 16 µg/mL (≈ 25.9 µM); inhibition at 16 µg/mL (Hep G2 cell line): 51.4%; IC50 (Hep G2 cell line): 15.6 µg/mL (≈ 25.3 µM); IC50 (H9 cell line): 7.72 µg/mL (≈ 12.5 µM); inhibition at 16 µg/mL (H9 cell line): 92.5%; IC50 (K562/adr cell line): 3.7 µg/mL (≈ 6 µM); inhibition at 16 µg/mL (K562/adr cell line): 82.6%; inhibition at 16 µg/mL (NB4 cell line): 93.8%; IC50 (NB4 cell line): 4.57 µg/mL (≈ 7.41 µM); inhibition at 16 µg/mL (Jurkat cell line): 83.4%; IC50 (Jurkat cell line): 9.85 µg/mL (≈ 16 µM); inhibition at 16 µg/mL (Kasumi-1 cell line): 72.2%; IC50 (Kasumi-1 cell line): 12.4 µg/mL (≈ 20.1 µM) |
